Measured values published in patent US7820817B2, “Modulators of muscarinic receptors” (Vertex Pharmaceuticals Incorporated, priority 2004, dated 2010).

System: at least one muscarinic receptor, M1, M2, M3, M4
Experiment: Muscarinic modulation activity (Table 3)
Type: cell-based
Set-up: key: +++: exhibited muscarinic modulation activity for at least one muscarinic receptor, M1, M2, M3, M4, at a concentration of less than 5 μM; ++: exhibited muscarinic modulation activity for at least one muscarinic receptor, M1, M2, M3, M4, at a concentration of between 30 μM and 5 μM; +: exhibited muscarinic modulation activity for at least one muscarinic receptor, M1, M2, M3, M4, at a concentration of greater than 30 μM; −: were not assayed or did not exhibit muscarinic modulation activity for at least one muscarinic receptor, M1, M2, M3, M4, at the concentration at which the assay was performed
Conditions: concentration at which modulation of at least one muscarinic receptor, M1, M2, M3, M4, was exhibited; CHO cells
Method: CHO cells expressing muscarinic receptors (M1 to M5) are grown as monolayers in tissue culture flasks at 37° C. in a humidified atmosphere containing 5% CO2 and passaged every 3-5 days. The growth media is Dulbecco's modified eagles medium (DMEM, Gibco Cat#12430-054), containing 25 mM Hepes and supplemented with Fetal Bovine Serum (Hyclone, cat#SH30071.03), 0.1 mM of MEM non-essential amino acids (GIBCO, Cat#11140-050), 1 mM MEM Sodium Pyruvate (GIBCO Cat#11360-070) and 100 units/ml of Penicillin G and 100 μg/ml of Streptomycin (GIBCO Cat#15140-122). The recombinant muscarinic receptor cell lines are grown under antibiotic pressure with media containing 25 μg/ml zeocin and 500 μg/ml G418 (M1-CHO), 4 μg/ml puromycin, 50 μg/ml zeocin and 2.5 μg/ml blasticidin (M2 and M4-CHO) or 50 μg/ml zeocin and 4 μg/ml puromycin (M3 and M5-CHO).
Cells are harvested at 80-90% confluence using Versene (GIBCO Cat#15040-066), collected by centrifugation and seeded 18-24 hrs prior to running the calcium assay at a density of 5,000-10,000 cells/well in […], clear-bottomed 384-well plates (BD Biocoat, poly-D-lysine, Cat#356663). The day of the experiment, the cells are washed with a plate washer (Bioteck Instruments, ELX 405) using bath1 buffer (140-mM NaCl, 4.5-mM KCl, 2-mM CaCl2, 1-mM MgCl2, 10-mM Hepes-Na, 10-mM Glucose, pH 7.4, with NaOH) containing 1 mM Probenecid. Next, the calcium dye Fluo-3 (25 μl/well of Fluo-3 AM at 4 μM, Molecular Probes F-1241, in Bath 1 buffer containing 1 mM Probenecid) is added to the 25 μl of Bath 1 remaining in each well after the plate wash and the dye is loaded at 37° C. in the tissue culture incubator for 60-90 min. The fluorescent dye is removed using the plate washer with Bath 1 containing 1 mM Probenecid, leaving 25 μl/well of this solution after the wash. Alternatively, cells can be loaded with the calcium indicator from Molecular Devices (Calcium 3 Assay Reagents, Cat #R7181) adding 5 μl of a 5× solution dye in Bath 1 containing 1 mM Probenecid (10 ml per dye flask cat#R7182 to generate a solution […]) to 20 μl of the same buffer. After loading for 60 min. the experiment can be run without having to remove the dye.
Compounds are prepared at a 2× fold concentration in a 96-well plate (round bottom, Costar Corning cat#3656), by reconstituting the pre-spotted compounds in bath 1 containing 1 mM probenecid. The final concentration DMSO is 0.5%, and the amount of DMSO is normalized across the assay plate. To determine an agonist action of the compounds on muscarinic receptors, the reconstituted compounds are added (25 μl compound/well) to the cell assay plate (containing 25 μl/well) using the multi-channel robotic system of the FLIPR 3 Instrument (Molecular Devices, Sunnyvale, Calif.). To determine a functional inhibitory action of the compounds on muscarinic receptors, the reconstituted compounds are added (25 μl compound/well) to the assay plate and pre-incubated for 15 min prior to adding 25 μl of Carbachol at 3× the EC80 for each muscarinic subtype. Alternatively, the compounds can be co-applied simultaneously with the agonist. In both assay modes, the fluorescence is recorded for 60 sec (excitation wavelength is […] and emission wavelength 540 nm) using the FLIPR 3 instrument.
The potency, efficacy and selectivity of the muscarinic compounds were evaluated by screening the compound activity across the whole family (M1 to M5 cells).
CHO cells expressing muscarinic receptors (M1 to M5) and containing a gene reporter system β-Lactamase) with transcriptional control mediated by calcium release (NFAT activation). See Zlokarnik, G; Negulescu, P. A.; Knapp, T. E.; Mere, L; Burres, N; Feng, L; Whitney, M; Roemer, K; Tsien, R. Y. Quantitation of transcription and clonal selection of single living cells with β-lactamase as reporter. Science, 1998 Jan. 2, 279(5347):84-8. The cells are grown as monolayers in tissue culture flasks at 37° C. in a humidified atmosphere containing 5% CO2 and passaged every 3-5 days. […]

Row | SMILES | ACTIVITY (muscarinic modulation activity)
1 | c1cc(N2CCN(C3CC4CCC3C4)CC2)ccn1 (stereo not shown) [Compound 18, 1-norbornan-2-yl-4-(4-pyridyl)piperazine] | ++ (exhibited muscarinic modulation activity for at least one muscarinic receptor, M1, M2, M3, M4, at a concentration of between 30 μM and 5 μM)
2 | CCOC(=O)N1C2CCC1CC(N1CCN(c3ncccc3C#N)CC1)C2 (stereo not shown) [Compound 12, 3-[4-(3-cyano-2-pyridyl)piperazin-1-yl]-8-azabicyclo[3.2.1]octane-8-carboxylic acid ethyl ester] | +++ (exhibited muscarinic modulation activity for at least one muscarinic receptor, M1, M2, M3, M4, at a concentration of less than 5 μM)
3 | Cc1cccc(N2CCN(C3CC4CCC3C4)CC2)n1 (stereo not shown) [Compound 77, 1-(6-methyl-2-pyridyl)-4-norbornan-2-yl-piperazine] | −
4 | COc1cc(OC)nc(C2CCN(CC3CC4C=CC3C4)CC2)n1 (stereo not shown) [Compound 4, 2-[1-(5-bicyclo[2.2.1]hept-2-enylmethyl)-4-piperidyl]-4,6-dimethoxy-pyrimidine] | +++ (exhibited muscarinic modulation activity for at least one muscarinic receptor, M1, M2, M3, M4, at a concentration of less than 5 μM)
5 | C1=CC2CC1CC2CN1CCN(c2ccccn2)CC1 (stereo not shown) [Compound 48, 1-(5-bicyclo[2.2.1]hept-2-enylmethyl)-4-(2-pyridyl)piperazine] | ++ (exhibited muscarinic modulation activity for at least one muscarinic receptor, M1, M2, M3, M4, at a concentration of between 30 μM and 5 μM)
6 | N#Cc1cccnc1N1CCN(CC2CCC3CCC2C3)CC1 (stereo not shown) [Compound 64, 2-[4-(4-bicyclo[3.2.1]octylmethyl)piperazin-1-yl]nicotinonitrile] | + (exhibited muscarinic modulation activity for at least one muscarinic receptor, M1, M2, M3, M4, at a concentration of greater than 30 μM)
7 | Cc1nccnc1N1CCN(C2CC3CCC2C3)CC1 (stereo not shown) [Compound 63, 2-methyl-3-(4-norbornan-2-ylpiperazin-1-yl)-pyrazine] | + (exhibited muscarinic modulation activity for at least one muscarinic receptor, M1, M2, M3, M4, at a concentration of greater than 30 μM)
8 | FC(F)(F)c1cccnc1N1CCN(CC2CC3C=CC2C3)CC1 (stereo not shown) [Compound 69, 1-(5-bicyclo[2.2.1]hept-2-enylmethyl)-4-[3-(trifluoromethyl)-2-pyridyl]-piperazine] | +++ (exhibited muscarinic modulation activity for at least one muscarinic receptor, M1, M2, M3, M4, at a concentration of less than 5 μM)
9 | CCOC(=O)N1C2CCC1CC(N1CCC(n3nnc4ccccc43)CC1)C2 (stereo not shown) [Compound 29, 3-[4-(1H-benzotriazol-1-yl)-1-piperidyl]-8-azabicyclo[3.2.1]octane-8-carboxylic acid ethyl ester] | +++ (exhibited muscarinic modulation activity for at least one muscarinic receptor, M1, M2, M3, M4, at a concentration of less than 5 μM)
10 | Cc1ccc(C#N)c(N2CCN(C3CC4CCC3C4)CC2)n1 (stereo not shown) [Compound 31, 6-methyl-2-(4-norbornan-2-ylpiperazin-1-yl)-nicotinonitrile] | ++ (exhibited muscarinic modulation activity for at least one muscarinic receptor, M1, M2, M3, M4, at a concentration of between 30 μM and 5 μM)
11 | Clc1cccnc1N1CCN(CC2CC3C=CC2C3)CC1 (stereo not shown) [Compound 52, 1-(5-bicyclo[2.2.1]hept-2-enylmethyl)-4-(3-chloro-2-pyridyl)-piperazine] | ++ (exhibited muscarinic modulation activity for at least one muscarinic receptor, M1, M2, M3, M4, at a concentration of between 30 μM and 5 μM)
12 | Cc1cccnc1N1CCN(CC2CC3C=CC2C3)CC1 (stereo not shown) [Compound 20, 2-[4-(5-bicyclo[2.2.1]hept-2-enylmethyl)piperazin-1-yl]-3-methyl-pyridine] | +++ (exhibited muscarinic modulation activity for at least one muscarinic receptor, M1, M2, M3, M4, at a concentration of less than 5 μM)
13 | c1cnc(N2CCN(C3CC4CCC3C4)CC2)cn1 (stereo not shown) [Compound 44, 2-(4-norbornan-2-ylpiperazin-1-yl)pyrazine] | ++ (exhibited muscarinic modulation activity for at least one muscarinic receptor, M1, M2, M3, M4, at a concentration of between 30 μM and 5 μM)
14 | NC(=O)c1ccc(N2CCN(CC3CC4CCC3C4)CC2)nc1 (stereo not shown) [Compound 14, 6-[4-(norbornan-2-ylmethyl)piperazin-1-yl]nicotinamide] | −
15 | c1ccc2c(c1)nnn2C1CCN(C2CC3CCC(C3)C2)CC1 (stereo not shown) [Compound 9, 1-[1-(3-bicyclo[3.2.1]octyl)-4-piperidyl]-1H-benzotriazole] | −
16 | N#Cc1cccnc1C1CCN(CC2CC3C=CC2C3)CC1 (stereo not shown) [Compound 54, 2-[1-(5-bicyclo[2.2.1]hept-2-enylmethyl)-4-piperidyl]nicotinonitrile] | +++ (exhibited muscarinic modulation activity for at least one muscarinic receptor, M1, M2, M3, M4, at a concentration of less than 5 μM)
17 | Clc1cccc(N2CCN(CC3CC4C=CC3C4)CC2)n1 (stereo not shown) [Compound 21, 1-(5-bicyclo[2.2.1]hept-2-enylmethyl)-4-(6-chloro-2-pyridyl)-piperazine] | −
18 | NS(=O)(=O)c1cnccc1N1CCN(CC2CC3CCC2C3)CC1 (stereo not shown) [Compound 55, 4-[4-(norbornan-2-ylmethyl)piperazin-1-yl]pyridine-3-sulfonamide] | ++ (exhibited muscarinic modulation activity for at least one muscarinic receptor, M1, M2, M3, M4, at a concentration of between 30 μM and 5 μM)
19 | Cc1nc(N2CCN(CC3CC4CCC3C4)CC2)c(C#N)cc1-c1ccccc1 (stereo not shown) [Compound 73, 6-methyl-2-[4-(norbornan-2-ylmethyl)piperazin-1-yl]-5-phenyl-nicotinonitrile] | −
20 | Cc1nccnc1N1CCN(CC2CC3C=CC2C3)CC1 (stereo not shown) [Compound 17, 2-[4-(5-bicyclo[2.2.1]hept-2-enylmethyl)piperazin-1-yl]-3-methyl-pyrazine] | +++ (exhibited muscarinic modulation activity for at least one muscarinic receptor, M1, M2, M3, M4, at a concentration of less than 5 μM)
21 | C1=CC2CC1CC2CN1CCN(c2ncccn2)CC1 (stereo not shown) [Compound 76, 2-[4-(5-bicyclo[2.2.1]hept-2-enylmethyl)piperazin-1-yl]pyrimidine] | +++ (exhibited muscarinic modulation activity for at least one muscarinic receptor, M1, M2, M3, M4, at a concentration of less than 5 μM)
22 | c1cc(N2CCN(C3C4CC5CC(C4)CC3C5)CC2)ccn1 (stereo not shown) [Compound 75, 1-(2-adamantyl)-4-(4-pyridyl)piperazine] | ++ (exhibited muscarinic modulation activity for at least one muscarinic receptor, M1, M2, M3, M4, at a concentration of between 30 μM and 5 μM)
